Assay results taken from patent US5955092A, “Skin care compositions containing an n-substituted fatty acid amide and retinol or retinyl ester” (Elizabeth Arden Co., Division of Conopco, Inc., priority 1996, dated 1999).
Like-named read-outs stand apart in the source and are kept apart here.

Tests used:
[1] = tested on: Human keratinocytes (TGase I); test: Transglutaminase (TGase I) ELISA in cultured keratinocytes, normalized to DNA (Example 3); assay type: cell-based; conditions: for mean TGase/DNA × 10^5 ± s.d: Control 57.80 ± 8.61; for activity at 0.25 µM: Homo sapiens, Keratinocyte, read-out: mean TGase/DNA (% control)
Experimental: Human keratinocytes, isolated from neonatal foreskin by trypsin treatment were grown in Dulbecco Modification Eagle (DME) Hams F12 (1:1) medium/10% fetal calf serum in the presence of irradiated 3T3 mouse fibroblasts for establishing dividing keratinocyte colonies. Cells were grown under the above condition until their second passage and kept frozen for future use. […] On day 7, when the cells were 80-90% confluent, they were trypsinized and plated in the serum-free medium for the various experiments.
(§1) During the process of terminal differentiation in the epidermis, a 15 nm thick layer of protein, known as the cornified envelope (CE) is formed on the inner surface of the cell periphery. The CE is composed of numerous distinct proteins which have been cross-linked together by the formation of N^ε -(γ-glutamyl) lysine isodipeptide bonds catalyzed by the action of at least two different transglutaminases (TGases) expressed in the epidermis. TGase I is expressed in abundance in the differentiated layers of the epidermis, especially the granular layer, but is absent in the undifferentiated basal epidermis. Thus TGase I is a useful marker of epidermal keratinocyte differentiation with high TGase I levels indicating a more differentiated state. An ELISA based TGase I assay, using a TGase I antibody, was used to assess the state of differentiation of the cultured keratinocytes in the examples that follow.
Keratinocytes (cultured as described above) were plated in 96 well plates at a density of 3,000 cells per well in 200 μl of cell culture media. After incubation for four days, the media was changed to media containing test compounds (six replicates per test). The cells were cultured for a further 72 hours after which time the media was aspirated and the plates stored at -70° C. After the plates were removed from the freezer, the cells were further freezed fractured by freezing and thawing and then washed 3× with PBS. The cells were incubated for one hour at room temperature (R/T) with TBS/5% BSA buffer. Cells were then incubated with 100 μl of monoclonal anti-human transglutaminase (IgG) mouse antibody (primary antibody) obtained from Biomedical Technologies Inc. diluted 1:2000 in TBS/1% BSA buffer for two hours at 37° C., and then rinsed six times with wash buffer (TBS/1% BSA/0.05% Tween-20). Cells were next incubated with 100 μl of Fab fragment, peroxidase conjugated anti-mouse IgG antibody (secondary antibody) from Amersham diluted 1:4,000 in wash buffer for two hours at 37° C. and then rinsed three times with wash buffer and three times with PBS. Cells were incubated with substrate solution (4 mg o-phenylene diamine and 3.3 μl 30% H2 O2 in 10 mL 0.1M citrate buffer, pH 5.0) for five minutes at R/T and in darkness (under aluminum foil). […] The absorbance of samples was read at 492 nm in the plate reader. […] Transglutaminase I levels were determined by subtracted background from the readings from each treatment and determining the mean s.d. for the replicates exposed to both antibodies.
The level of TGase-1 was normalized to DNA content of the cells in the same well thus eliminating variation due to differences in cell number. DNA quantitation is a particularly useful indicator of cell number, including keratinocyte cell number, because each cell has to all intents and purposes an identical genome and therefore an identical quantity of DNA. […] Quantitation of DNA was used to normalize the TGase data to cell number. […]

[2] = tested on: Human keratinocytes (TGase I); test: Transglutaminase (TGase I) ELISA in cultured keratinocytes, normalized to DNA (Example 1); assay type: cell-based; conditions: for dose dependence of decrease in transglutaminase level: 2.5×10^-7 M to 2.5×10^-9 M; for mean TGase/DNA × 10^-4 ± s.d: 72 hours, n = 3, Control 2.44 ± 0.24
Experimental: Human keratinocytes, isolated from neonatal foreskin by trypsin treatment were grown in Dulbecco Modification Eagle (DME) Hams F12 (1:1) medium/10% fetal calf serum in the presence of irradiated 3T3 mouse fibroblasts for establishing dividing keratinocyte colonies. Cells were grown under the above condition until their second passage and kept frozen for future use. Frozen second passage keratinocytes were thawed and plated into the above medium and grown for five days before they were switched to a serum-free MCDB 153-based medium keratinocyte growth medium (KGM) from Clonetics Corporation, San Diego, Calif., containing 0.15 mM Ca, or keratinocyte serum-free media (KSFM) from GIBCO containing 0.09 mM Ca). On day 7, when the cells were 80-90% confluent, they were trypsinized and plated in the serum-free medium for the various experiments.
as §1
For Example 1, the following procedure was used:
Keratinocytes (cultured as described above) were plated in 96 well plates at a density of 3,000 cells per well in 200 μl media. After incubation for four days the media was changed to media containing test compounds (six replicates per test). The cells were cultured for a further 72 hours after which time the media was aspirated and the plates stored at -70° C. Plates were removed from the freezer, and the cells washed with PBS. 100 μl sterile water was added and the cells were freeze fractured by freezing at -70° C. then thawing. The cells were incubated for one hour at room temperature (R/T) with PBS/3% BSA (wash buffer, bovine serum albumin), then rinsed with a fresh aliquot of wash buffer. Cells were incubated with 50 μl of primary antibodies monoclonal anti-human transglutaminase mouse antibody (IgG) obtained from Biomedical Industries diluted 1:2,000 in wash buffer for one hour, 37° C. then rinsed two times with wash buffer. Cells were then incubated with 50 μl of secondary antibody (Fab fragment, peroxidase conjugated anti-mouse IgG obtaining from Amersham) diluted 1:4,000 in wash buffer for one hour at 37° C., then rinsed two times with wash buffer. Cells were incubated with substrate solution (4 mg o-phenylene diamine and 3.3 μl 30% H2 O2 in 10 ml 0.1 M citrate buffer pH 5.0) for five minutes, R/T, in darkness (under aluminum foil). The reaction was stopped by the addition of 50 μl 4N H2 SO4. The absorbance of samples was read at 492 nm in the plate reader. Out of the six replicates, four were treated with both antibodies, two were treated only with the secondary antibody (i.e., to determine background binding of enzyme conjugated Ab). TGase levels were determined by subtracting background from the readings from each treatment and determining mean±s.d. for the replicates exposed to both Ab.
The level of TGase-1 detected after treatment of the cells could be influenced by cell number, i.e., the greater the number of cells the greater the level of TGase-1 detected. The level of TGase-1 was normalized to DNA content of the cells in the same well thus eliminating variation due to differences in cell number. […]

[3] = target: T1, LRAT (Bos taurus, UniProt Q9BGL2); test: In vitro Microsomal Esterification of Retinol, LRAT catalyzed; assay type: biochemical, bovine; conditions: 1 hour at 37° C., pH 7
T1 construct: microsomal fraction isolated from bovine retinal pigment epithelial cells; from tissue; host or cells: microsomes of bovine retinal pigment epithelial cells
T1 sequence (Q9BGL2 1-230): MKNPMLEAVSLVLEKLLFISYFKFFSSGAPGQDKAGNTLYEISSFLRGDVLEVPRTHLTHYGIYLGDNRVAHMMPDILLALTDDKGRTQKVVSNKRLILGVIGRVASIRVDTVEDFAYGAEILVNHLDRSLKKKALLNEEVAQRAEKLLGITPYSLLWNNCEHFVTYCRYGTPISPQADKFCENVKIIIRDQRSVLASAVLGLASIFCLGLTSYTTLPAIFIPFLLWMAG
Experimental: (§2) Microsomes are obtained as described in: J. C. Saari and D. L. Bredberg, "CoA and Non-CoA Dependent Retinol Esterification in Retinal Figment Epithelium" J. Biol. Chem. 263, 8084-90 (1988).
(§3) A solution containing 0.1M sodium phosphate pH 7 buffer, 5 mM dithiothreitol, 2 mg/ml bovine serum albumin, 40 micromolar palmitoyl CoA, 40 micromolar dilauroyl phosphatidyl choline, 10 micromolar retinol and a test compound or a solvent blank, is incubated for 1 hour at 37° C. with a microsomal fraction isolated from bovine retinal pigment epithelial cells. After incubation, the reaction was quenched by addition of an equal volume of ethanol, and the retinyl esters formed (retinyl laurate from the LRAT catalyzed reaction and retinyl palmitate from ARAT catalyzed reaction) are extracted with hexane. The hexane layer is removed, evaporated under nitrogen, and the residue analyzed by HPLC on a 3.9×300 mm C18 reversed phase column using a 80% methanol in tetrahydrofuran mobile phase and fluorescence detection (325 nm excitation, 480 nm emission) to quantitate the retinyl ester. The quantity of ester formed in the presence of the solvent blank is taken as 100%, and this is used to calculate the percent inhibition of ester formation for the compounds tested. As a control, an aliquot of microsomes is inactivated by boiling for 5 minutes, which results in at least 95% inhibition of ester formation. […]

[4] = tested on: ARAT; test: In vitro Microsomal Esterification of Retinol, ARAT catalyzed; assay type: biochemical, bovine; conditions: 100 μM; 1 hour at 37° C.; pH 7
Experimental: as §2, §3

SMILES	inhibition of keratinocyte TG1 level when used alone (in words) ([1]; 2.5×10^-7 M retinol, 10^-4 M Formula A, used alone, compared with 2.5×10^-7 M retinoic acid)	mean TGase/DNA × 10^5 ± s.d ([1]; 2.5 × 10^-7 M, 72 hours, n = 3)	activity at 0.25 µM ([1]; 2.5 × 10^-7 M, 72 hours, n = 3) [%]	dose dependence of decrease in transglutaminase level [2]	mean TGase/DNA × 10^-4 ± s.d ([2]; 2.5 × 10^-7 M)	mean TGase/DNA × 10^-4 ± s.d ([2]; 2.5 × 10^-8 M)	mean TGase/DNA × 10^-4 ± s.d ([2]; 2.5 × 10^-9 M)	inhibition at 100 µM [3] [%]	% INHIBITION, ARAT [4] [%]	activity at 0.25 µM ([1]; 72 h) [%]	decrease of keratinocyte differentiation compared with corresponding retinol treatments ([2]; 2.5×10^-7 M, 2.5×10^-8 M and 2.5×10^-9 M, vs retinol at same concentration)	effect on keratinocyte differentiation vs ethanol control ([2]; all concentrations tested: 2.5×10^-7 M, 2.5×10^-8 M and 2.5×10^-9 M)
CC1=C(/C=C/C(C)=C/C=C/C(C)=C/CO)C(C)(C)CCC1 [Retinol]	less effective	45.60 ± 3.92 × 10^5	79	dose dependent	1.14 ± 0.22 × 10^-4	1.89 ± 0.30 × 10^-4	2.70 ± 0.59 × 10^-4					
CCCCCCCC(=O)NC(COC)COC [Formula C]								0	0			
CC1=C(/C=C/C(C)=C/C=C/C(C)=C/C(=O)O)C(C)(C)CCC1 [Retinoic acid]		39.99 ± 5.28 × 10^5		dose dependent						69	significantly greater extent	decreased keratinocyte differentiation
